From patent EP0036572A1, “Substituted alkylthioacylamino acids, processes for their preparation and pharmaceutical compositions” (C.H. BOEHRINGER SOHN, priority 1980, dated 1981)

How the values were obtained:
[1] = system: genetischen Hochdruckratte; settings: genetische Hochdruckratte; 30 mg/kg p.o.
[2] = system: durch Bradykinin erzeugte Blutdrucksenkung; settings: Ratten; 3,0 µ g/kg Bradykinin i.v.; test substance 1,38juMol/kg i.v.

For C[C@H](CSC(C[N+](=O)[O-])c1ccccc1)C(=O)N1CCC[C@H]1C(=O)O (stereo partly drawn) [Beispiel 1, 1-[3-(1-Phenyl-2-nitro-äthylthio)-2-D-methylpropanoyl]-L-prolin], the Blutdrucksenkung [1] was 19% and the “durch Bradykinin verursachte Blutdrucksenkung verstärkt um” value [2] was 142%.
